{"source": "paper PMC11468809", "about": "“An Outer Membrane Vesicle‐Based Permeation Assay (OMPA) for Assessing Bacterial Bioavailability” (Advanced Healthcare Materials, 2021)", "key": {"[1]": {"experiment": "Membrane permeabilization experiment on OMV-derived membrane", "format": "in vitro ADME, Escherichia coli", "settings": "for effect of membrane-perturbating agent on the OMV-derived model: permeability of fusidic acid or fluorescein as readout", "protocol": "Experiments were conducted on OMVs of E. coli BL21 DE3 Omp8 as stated above with some modifications. […] After 30 min, solutions were removed and the standard protocol was followed employing 200 × 10^−6 M fusidic acid solution and sampling after 5, 10, 15, 20, 25, 30, 45, and 60 min. The quantification was done via LC–MS/MS.\n(§1) Afterward 240 µL of 10 × 10^−6 M fluorescein solution in PBS (pH 7.4) was added and 40 µL samples were drawn after 5, 10, 15, 20, 25, 30, 45, and 60 min and diluted 1 in 5 prior to fluorimetric quantification (λ ex = 485 nm, λ em = 530 nm)."}, "[2]": {"experiment": "Permeation across porin-deficient E. coli BL21 DE3 Omp8 OMV-derived membrane model", "settings": "standard permeation assay, 200 × 10^−6 M", "protocol": "(§2) 30 µL of the OMV or liposome suspension were given on top of membrane filters of a 96‐well filter plate (MultiScreen 96‐well filter plates with 0.4 µm PCTE membrane). Afterwards, filters were dried at 37°C inside a Memmert UF55 universal oven (fan at 100%). This process was repeated another two times. A six‐fold coating procedure was only followed for SEM‐imaging purposes. For permeation studies, the obtained coatings were covered with 40 µl of 0.5% w/v agarose solution using a direct diplacement pipette. Prior to permeation studies, the bottom of the coated filter was also coated with a thin film of 0.5% w/v agarose using a small brush.\n(§3) Coated wells were incubated on the apical and basolateral side for 30 min with PBS (pH 7.4) at 37°C while shaken at 180 rpm. After incubation, 230 µL of pre‐warmed 200 × 10^−6 M antibiotic donor solution (37°C) replaced the PBS in the respective donor wells, while 30 µL were immediately removed and diluted 1:10. The absorbance of these dilutions was measured in a receiver plate using a Tecan Infinite 200 PRO (Tecan Trading AG, Maennedorf, Switzerland) plate reader. (Table S1, Supporting Information) 300 µL of fresh PBS were given into the acceptor wells of the receiver plate followed by absorbance measurements. Donor and acceptor plates were reassembled, incubated, and disassembled after 10, 20, 30, 45, 60, 90, and 120 min to measure the absorbance in the acceptor wells."}, "[3]": {"experiment": "Membrane permeabilization experiment on bacteriomimetic liposome-derived model", "format": "in vitro ADME", "settings": "fluorescein 10 × 10^−6 M after 30 min incubation with 83.1 × 10^−6 M PMB vs PBS", "protocol": "as §1"}, "[4]": {"experiment": "Comparison of P app among four vesicle-derived membrane models", "format": "in vitro ADME", "settings": "200 × 10^−6 M; Figure 11", "from_the_text": "This process was repeated another two times."}, "[5]": {"settings": "not told", "protocol": "as §2\nas §3, with “After incubation, 230 µL of pre‐warmed 200 × 10^−6 M antibiotic donor solution (37°C) replaced the PBS in the respective donor wells, while 30 µL were immediately removed and diluted 1:10.” left out"}, "[6]": {"experiment": "Porin-blocking experiment with spermine on porin-containing membrane model", "settings": "15 × 10^−6 M norfloxacin, 140 × 10^−3 M spermine; Figure 10B", "method": "(§4) Experiments were performed on OMVs of E. coli strains BL21 DE3 and BL21 DE3 Omp8. The procedure followed the standard protocol for permeability studies with some modifications. The membranes were incubated on both sides for 30 min either with 140 × 10^−3 M spermine solution in PBS (pH7.4) or blank PBS. […] Samples of 40 µL were taken after 5, 10, 15, 20, 25, and 30 min and analyzed by LC–MS/MS.\n(§5) An Accela UHPLC System‐Coupled TSQ Quantum Access Max tandem quadrupole mass spectrometer (both from Thermo Fisher Scientific, Waltham, MA, USA) was employed. The entire system was operated via Xcalibur 219 software (Thermo Fisher Scientific, Waltham, MA, USA). The detection of the compounds in the MS happened after heated electrospray ionization (H‐ESI) in positive ion mode. The chromatographic analysis was performed with a binary solvent mixture using optionally acetonitrile + 0.1% formic acid (A), MilliQ‐water + 0.1% formic acid (B), methanol + 0.1% formic acid (C), or ammonium formate buffer (10 × 10^−3 M, pH 3, D). […]\n(§6) Raw data obtained from the respective analytical readouts of transport studies were converted to their corresponding concentration via external calibration. […]\n(§7) The apparent permeability coefficient (P app) was calculated according to the following formula: (2) Pappcm∗s^−1=J/c0 where c 0 is the initial donor concentration (µg cm^− ^3) and J (µg cm^− ^2*s) the compound flux."}, "[7]": {"experiment": "Porin-blocking experiment with spermine on porin-deficient membrane model", "settings": "15 × 10^−6 M norfloxacin, no spermine", "method": "as §4, §5, §6, §7"}, "[8]": {"experiment": "Impact of agarose gel and vesicle coating on compound permeation", "settings": "P app; 0.5% w/v agarose gel; Figure 7", "protocol": "as §2, §3"}}, "data": [{"molecule": "CC(=O)O[C@H]1C[C@@]2(C)[C@@H](C[C@@H](O)[C@H]3[C@@]4(C)CC[C@@H](O)[C@@H](C)[C@@H]4CC[C@@]32C)/C1=C(\\CCC=C(C)C)C(=O)O", "note": "[Fusidic acid]", "values": [{"measurement": "change in permeability after membrane-perturbating agent", "setting": "[1]; fusidic acid 200 × 10^−6 M after 30 min incubation with 103.8 × 10^−6 M PMBN vs PBS", "result": "none of the membrane‐perturbating agents caused significant changes"}]}, {"molecule": "O=C(N[C@H](CO)[C@H](O)c1ccc([N+](=O)[O-])cc1)C(Cl)Cl", "note": "[chloramphenicol]", "values": [{"measurement": "permeability compared with the porin-containing BL21 DE3 OMV-derived model", "setting": "[2]", "result": "did not lead to a significant drop of permeation"}]}, {"molecule": "O=C1OC2(c3ccc(O)cc3Oc3cc(O)ccc32)c2ccccc21", "note": "[fluorescein]", "values": [{"measurement": "permeation after treatment with PMB", "setting": "[3]", "result": "permeated significantly slower"}, {"measurement": "change in permeability after membrane-perturbating agent", "setting": "[1]; fluorescein 10 × 10^−6 M after 30 min incubation with 83.1 × 10^−6 M PMB vs PBS", "result": "none of the membrane‐perturbating agents caused significant changes"}]}, {"molecule": "CCn1cc(C(=O)O)c(=O)c2ccc(C)nc21", "note": "[nalidixic acid]", "values": [{"measurement": "difference in permeability throughout the OMV- and the bacteriomimetic liposome-based model", "setting": "[4]", "result": "no significant difference"}, {"measurement": "permeability across the eukaryotic membrane model compared with the other models", "setting": "[5]", "result": "increased"}]}, {"molecule": "CCn1cc(C(=O)O)c(=O)c2cc(F)c(N3CCNCC3)cc21", "note": "[norfloxacin]", "values": [{"measurement": "permeability coefficients in presence vs absence of spermine", "setting": "[6]", "result": "significantly different"}, {"measurement": "permeability compared with the porin-containing model", "setting": "[7]", "result": "significantly decreased permeability"}, {"measurement": "permeability compared with the porin-containing BL21 DE3 OMV-derived model", "setting": "[2]", "result": "lower"}]}, {"molecule": "CO[C@@H]1[C@@H](OC(N)=O)[C@@H](O)[C@H](Oc2ccc3c(O)c(NC(=O)c4ccc(O)c(CC=C(C)C)c4)c(=O)oc3c2C)OC1(C)C", "note": "[novobiocin]", "values": [{"measurement": "permeability with the vesicle coating compared to pure agarose gel coating", "setting": "[8]", "result": "significantly lower"}]}, {"molecule": "CO[C@H]1/C=C/O[C@@]2(C)Oc3c(C)c(O)c4c(O)c(c(/C=N/N5CCN(C)CC5)c(O)c4c3C2=O)NC(=O)/C(C)=C\\C=C\\[C@H](C)[C@H](O)[C@@H](C)[C@@H](O)[C@@H](C)[C@H](OC(C)=O)[C@@H]1C", "note": "[rifampicin]", "values": [{"measurement": "difference in permeability throughout the OMV- and the bacteriomimetic liposome-based model", "setting": "[4]", "result": "no significant difference"}, {"measurement": "permeability with the vesicle coating compared to pure agarose gel coating", "setting": "[8]", "result": "significantly lower"}, {"measurement": "permeability across the eukaryotic membrane model compared with the other models", "setting": "[5]", "result": "comparable permeability"}]}, {"molecule": "CN(C)[C@@H]1C(O)=C(C(N)=O)C(=O)[C@@]2(O)C(O)=C3C(=O)c4c(O)cccc4[C@@](C)(O)[C@H]3C[C@@H]12", "note": "[tetracycline]", "values": [{"measurement": "permeability compared with the porin-containing BL21 DE3 OMV-derived model", "setting": "[2]", "result": "did not lead to a significant drop of permeation"}, {"measurement": "permeability with the vesicle coating compared to pure agarose gel coating", "setting": "[8]", "result": "significantly lower"}]}, {"molecule": "CN[C@H](CC(C)C)C(=O)N[C@H]1C(=O)N[C@@H](CC(N)=O)C(=O)N[C@H]2C(=O)N[C@H]3C(=O)N[C@H](C(=O)N[C@H](C(=O)O)c4cc(O)cc(O)c4-c4cc3ccc4O)[C@H](O)c3ccc(c(Cl)c3)Oc3cc2cc(c3O[C@@H]2O[C@H](CO)[C@@H](O)[C@H](O)[C@H]2O[C@H]2C[C@](C)(N)[C@H](O)[C@H](C)O2)Oc2ccc(cc2Cl)[C@H]1O", "note": "[vancomycin]", "values": [{"measurement": "trend of permeability the fewer outer membrane features the model has", "setting": "[4]", "result": "gradual decrease of permeability"}]}, {"molecule": "PMB nonapeptide [PMBN]", "values": [{"measurement": "effect of membrane-perturbating agent on the OMV-derived model", "setting": "[1]", "result": "lack of effect"}]}, {"molecule": "Polymyxin B [PMB]", "values": [{"measurement": "effect of membrane-perturbating agent on the OMV-derived model", "setting": "[1]", "result": "lack of effect"}]}]}
